Source: patent US12281122B1, “PI3K inhibitors” (Cogent Biosciences, Inc., priority 2023, dated 2025)

Key:
[1] = system: SKBR3 (PI3Kα-Wild Type) cell line; assay: HTRF phospho-AKT(S473) cell assay in SKBR3 cells; assay type: cell-based, human; conditions: Homo sapiens, SK-BR-3; SKBR3 (PI3Kα-Wild Type) cells, HTRF phospho-AKT(S473), 2 hours compound incubation, PDGF-BB stimulated
Outline: (§1)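 T47D (PI3Kα-H1047R; RPMI, 10% FBS, insulin) and SKBR3 (wild-type PI3Kα; McCoy's 5A, 10% FBS) cells treated 2 h at 37 °C with 12-point 1:3 dilutions, top 5 μM and 10 μM respectively, ≤0.5% DMSO. SKBR3 stimulated with 70 ng/ml PDGF-BB for the last 15 min; lysate pAKT(S473) by HTRF, IC50 from curves.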

[2] = system: T47D (PI3Kα-H1047R) cell line; assay: HTRF phospho-AKT(S473) cell assay in T47D cells; assay type: cell-based, human; conditions: Homo sapiens; T47D (PI3Kα-H1047R) cells, HTRF phospho-AKT(S473), 2 hours compound incubation
Outline: as §1

SMILES	IC50 [1] [µM]	IC50 [2] [nM]
Cc1cc([C@@H](C)Nc2ccc(Cl)nc2C(=O)NS(C)(=O)=O)c2nc(N3CCc4c(cnn4CC(F)(F)F)C3)n(C)c(=O)c2c1 [Compound 221, (R)-6-chloro-3-((1-(3,6-dimethyl-4-oxo-2-(1-(2,2,2-trifluoroethyl)-1,4,6,7-tetrahydro-5H-pyrazolo[4,3-c]pyridin-5-yl)-3,4-dihydroquinazolin-8-yl)ethyl)amino)-N-(methylsulfonyl) picolinamide]	1 to 5	< 250
Cc1cc([C@@H](C)Nc2ccc(Cl)nc2C(=O)NS(C)(=O)=O)c2nc(C3CCN(c4ccn(C)n4)CC3)n(C)c(=O)c2c1 [Compound 223, (R)-6-chloro-3-((1-(3,6-dimethyl-2-(1-(1-methyl-1H-pyrazol-3-yl)piperidin-4-yl)-4-oxo-3,4-dihydroquinazolin-8-yl)ethyl)amino)-N-(methylsulfonyl) picolinamide]	1 to 5	< 250
Cc1cc([C@@H](C)Nc2ccc(Cl)nc2C(=O)NS(C)(=O)=O)c2nc(N3Cc4cc(F)cnc4C3)n(C)c(=O)c2c1 [Compound 225, (R)-6-chloro-3-((1-(2-(3-fluoro-5,7-dihydro-6H-pyrrolo[3,4-b]pyridin-6-yl)-3,6-dimethyl-4-oxo-3,4-dihydroquinazolin-8-yl)ethyl)amino)-N-(methylsulfonyl) picolinamide]	1 to 5	< 250
Cc1cc([C@@H](C)Nc2ccc(Cl)nc2C(=O)NS(C)(=O)=O)c2nc(N3CCC(c4c(C)nn(C)c4C)CC3)n(C)c(=O)c2c1 [Compound 226, (R)-6-chloro-3-((1-(3,6-dimethyl-4-oxo-2-(4-(1,3,5-trimethyl-1H-pyrazol-4-yl)piperidin-1-yl)-3,4-dihydroquinazolin-8-yl)ethyl)amino)-N-(methylsulfonyl) picolinamide]	1 to 5	< 250
Cc1cc([C@@H](C)Nc2ccc(Cl)nc2C(=O)NS(C)(=O)=O)c2nc(C3CCN(c4cnn(C)c4)CC3)n(C)c(=O)c2c1 [Compound 227, (R)-6-chloro-3-((1-(3,6-dimethyl-2-(1-(1-methyl-1H-pyrazol-4-yl)piperidin-4-yl)-4-oxo-3,4-dihydroquinazolin-8-yl)ethyl)amino)-N-(methylsulfonyl) picolinamide]	1 to 5	< 250
Cc1cc([C@@H](C)Nc2ccc(Cl)nc2C(=O)NS(C)(=O)=O)c2nc(N3C[C@@H]4C[C@H]3CN4c3ccn(C)n3)n(C)c(=O)c2c1 [Compound 228, 6-chloro-3-(((R)-1-(3,6-dimethyl-2-((1S,4S)-5-(1-methyl-1H-pyrazol-3-yl)-2,5-diazabicyclo[2.2.1]heptan-2-yl)-4-oxo-3,4-dihydroquinazolin-8-yl)ethyl)amino)-N-(methylsulfonyl) picolinamide]	1 to 5	< 250
Cc1cc([C@@H](C)Nc2ccc(Cl)nc2C(=O)NS(C)(=O)=O)c2nc(N3C[C@H]4C[C@@H]3CN4c3ccn(C)n3)n(C)c(=O)c2c1 [Compound 229, 6-chloro-3-(((R)-1-(3,6-dimethyl-2-((1R,4R)-5-(1-methyl-1H-pyrazol-3-yl)-2,5-diazabicyclo[2.2.1]heptan-2-yl)-4-oxo-3,4-dihydroquinazolin-8-yl)ethyl)amino)-N-(methylsulfonyl) picolinamide]	1 to 5	< 250
Cc1cc([C@@H](C)Nc2ccc(Cl)nc2C(=O)NS(C)(=O)=O)c2nc(N3Cc4cn(CC(F)F)nc4C3)n(C)c(=O)c2c1 [Compound 230, (R)-6-chloro-3-((1-(2-(2-(2,2-difluoroethyl)-2,6-dihydropyrrolo[3,4-c]pyrazol-5(4H)-yl)-3,6-dimethyl-4-oxo-3,4-dihydroquinazolin-8-yl)ethyl)amino)-N-(methylsulfonyl) picolinamide]	1 to 5	< 250
Cc1cc([C@@H](C)Nc2ccc(Cl)nc2C(=O)NS(C)(=O)=O)c2nc(N3CCC(c4c(C)n[nH]c4C)CC3)n(C)c(=O)c2c1 [Compound 232, (R)-6-chloro-3-((1-(2-(4-(3,5-dimethyl-1H-pyrazol-4-yl)piperidin-1-yl)-3,6-dimethyl-4-oxo-3,4-dihydroquinazolin-8-yl)ethyl)amino)-N-(methylsulfonyl) picolinamide]	1 to 5	< 250
Cc1cc([C@@H](C)Nc2ccc(Cl)nc2C(=O)NS(C)(=O)=O)c2nc(N3C[C@H]4C[C@@H]3CN4c3cnn(C)c3)n(C)c(=O)c2c1 [Compound 233, 6-chloro-3-(((R)-1-(3,6-dimethyl-2-((1R,4R)-5-(1-methyl-1H-pyrazol-4-yl)-2,5-diazabicyclo[2.2.1]heptan-2-yl)-4-oxo-3,4-dihydroquinazolin-8-yl)ethyl)amino)-N-(methylsulfonyl) picolinamide]	1 to 5	< 250
Cc1cc([C@@H](C)Nc2ccc(Cl)nc2C(=O)NS(C)(=O)=O)c2nc(N3CCC(n4cc(-c5cccnc5)cn4)CC3)n(C)c(=O)c2c1 [Compound 234, (R)-6-chloro-3-((1-(3,6-dimethyl-4-oxo-2-(4-(4-(pyridin-3-yl)-1H-pyrazol-1-yl)piperidin-1-yl)-3,4-dihydroquinazolin-8-yl)ethyl)amino)-N-(methylsulfonyl) picolinamide]	1 to 5	< 250
Cc1cc([C@@H](C)Nc2ccc(Cl)nc2C(=O)NS(C)(=O)=O)c2nc(N3CCC(n4cc(-c5ccccc5)cn4)CC3)n(C)c(=O)c2c1 [Compound 235, (R)-6-chloro-3-((1-(3,6-dimethyl-4-oxo-2-(4-(4-phenyl-1H-pyrazol-1-yl)piperidin-1-yl)-3,4-dihydroquinazolin-8-yl)ethyl)amino)-N-(methylsulfonyl) picolinamide]	≥ 5	250 to 500
Cc1cc([C@@H](C)Nc2ccc(Cl)nc2C(=O)NS(C)(=O)=O)c2nc(N3Cc4cn(-c5ccc(C#N)cc5)nc4C3)n(C)c(=O)c2c1 [Compound 239, (R)-6-chloro-3-((1-(2-(2-(4-cyanophenyl)-2,6-dihydropyrrolo[3,4-c]pyrazol-5(4H)-yl)-3,6-dimethyl-4-oxo-3,4-dihydroquinazolin-8-yl)ethyl)amino)-N-(methylsulfonyl) picolinamide]	1 to 5	< 250
Cc1cc([C@@H](C)Nc2ccc(Cl)nc2C(=O)NS(C)(=O)=O)c2nc(N3Cc4cnn(-c5ccc(C#N)cc5)c4C3)n(C)c(=O)c2c1 [Compound 240, (R)-6-chloro-3-((1-(2-(1-(4-cyanophenyl)-4,6-dihydropyrrolo[3,4-c]pyrazol-5(1H)-yl)-3,6-dimethyl-4-oxo-3,4-dihydroquinazolin-8-yl)ethyl)amino)-N-(methylsulfonyl) picolinamide]	1 to 5	< 250
Cc1cc([C@@H](C)Nc2ccc(Cl)nc2C(=O)NS(C)(=O)=O)c2nc(-c3ccc(-c4cnn(C)c4)nc3)n(C)c(=O)c2c1 [Compound 241, (R)-6-chloro-3-((1-(3,6-dimethyl-2-(6-(1-methyl-1H-pyrazol-4-yl)pyridin-3-yl)-4-oxo-3,4-dihydroquinazolin-8-yl)ethyl)amino)-N-(methylsulfonyl) picolinamide]	1 to 5	< 250
Cc1cc([C@@H](C)Nc2ccc(Cl)nc2C(=O)NS(C)(=O)=O)c2nc(N3CCC(c4ccc(N(C)C)nc4)CC3)n(C)c(=O)c2c1 [Compound 242, (R)-6-chloro-3-((1-(2-(4-(6-(dimethylamino)pyridin-3-yl)piperidin-1-yl)-3,6-dimethyl-4-oxo-3,4-dihydroquinazolin-8-yl)ethyl)amino)-N-(methylsulfonyl) picolinamide]	1 to 5	< 250
Cc1cc([C@@H](C)Nc2ccc(Cl)nc2C(=O)NS(C)(=O)=O)c2nc(-c3ccc(-c4ccn(C)n4)nc3)n(C)c(=O)c2c1 [Compound 243, (R)-6-chloro-3-((1-(3,6-dimethyl-2-(6-(1-methyl-1H-pyrazol-3-yl)pyridin-3-yl)-4-oxo-3,4-dihydroquinazolin-8-yl)ethyl)amino)-N-(methylsulfonyl) picolinamide]	1 to 5	< 250
Cc1cc([C@@H](C)Nc2ccc(Cl)nc2C(=O)NS(C)(=O)=O)c2nc(-c3ccc(O[C@@H]4CCN(C)CC4(F)F)nc3)n(C)c(=O)c2c1 [Compound 244, 6-chloro-3-(((R)-1-(2-(6-(((R)-3,3-difluoro-1-methylpiperidin-4-yl)oxy)pyridin-3-yl)-3,6-dimethyl-4-oxo-3,4-dihydroquinazolin-8-yl)ethyl)amino)-N-(methylsulfonyl) picolinamide]	1 to 5	< 250
Cc1cc([C@@H](C)Nc2ccc(Cl)nc2C(=O)NS(C)(=O)=O)c2nc(N3Cc4cn(-c5cnn(C)c5)nc4C3)n(C)c(=O)c2c1 [Compound 245, (R)-6-chloro-3-((1-(3,6-dimethyl-2-(2-(1-methyl-1H-pyrazol-4-yl)-2,6-dihydropyrrolo[3,4-c]pyrazol-5(4H)-yl)-4-oxo-3,4-dihydroquinazolin-8-yl)ethyl)amino)-N-(methylsulfonyl) picolinamide]	1 to 5	< 250
Cc1cc([C@@H](C)Nc2ccc(Cl)nc2C(=O)NS(C)(=O)=O)c2nc(N3Cc4cn(-c5cccnc5C)nc4C3)n(C)c(=O)c2c1 [Compound 246, (R)-6-chloro-3-((1-(3,6-dimethyl-2-(2-(2-methylpyridin-3-yl)-2,6-dihydropyrrolo[3,4-c]pyrazol-5(4H)-yl)-4-oxo-3,4-dihydroquinazolin-8-yl)ethyl)amino)-N-(methylsulfonyl) picolinamide]	1 to 5	< 250
